From patent USRE39062E1, “INGAP protein involved in pancreatic islet neogenesis” (McGill Unviersity, priority 1995, dated 2006)

Legend:
Assay type in all cases: cell-based
[1] = test system: hamster insulinoma tumor cells (HIT); test: 3H-thymidine incorporation into hamster insulinoma tumor cells (HIT), control cell line; details: HIT control cell line in Ham's F-12K media, 24 hrs, TCA precipitation
Description: (§1) The same synthetic peptide was tested for its ability to stimulate ^3H-thymidine incorporation into rat pancreatic tumor duct cells (ARIP) and hamster insulinoma tumor cells (HIT). 10 μCi of ^3H-thymidine at 80.4 Ci/mmole concentration was added to approximate 10^6 cells cultured in Ham's F-12K media. After 24 hrs, the cells were harvested and solubilized. Differential precipitation of the nucleic acids with trichloroacetic acid (TCA) was performed according to the procedure modified by Rosenberg et al. and the ^3H-thymidine proportion incorporated was calculated. […] The synthetic peptide had no effect on the control cell line HIT.

[2] = test system: rat pancreatic tumor duct cells (ARIP); test: 3H-thymidine incorporation into rat pancreatic tumor duct cells (ARIP); details: ARIP cells in Ham's F-12K media, 24 hrs, TCA precipitation
Description: as §1

rat insulinoma cell line = test: Growth and proliferation of a rat insulinoma cell line
pancreatic ductal cells = test: Stimulation of pancreatic ductal cells to grow and proliferate
hamster duct cell line = test: Growth and proliferation of a hamster duct cell line
rat tumor duct cell line = test: Growth and proliferation of a rat tumor duct cell line
[3] = test system: hamster insulinoma cell line; test: Growth and proliferation of a hamster insulinoma cell line

Substance	effect on 3H-thymidine incorporation [1]	increase in 3H-thymidine incorporation comparing to the absence of the synthetic peptide [2]	stimulation of growth and proliferation (rat insulinoma cell line)	stimulation of growth and proliferation (pancreatic ductal cells)	stimulation of growth and proliferation (hamster duct cell line)	stimulation of growth and proliferation (rat tumor duct cell line)	stimulation of growth and proliferation [3]
synthetic peptide: synthetic peptide corresponding to amino acids 104-118 in SEQ ID NO:2 of the deduced hamster INGAP protein (GLHDPSHGTLPNGSG)	no effect	2.4 fold					
fragment of 20 amino acids of the sequence of SEQ ID NO: 2, from amino acid #103-#122: fragment of 20 amino acids of INGAP, SEQ ID NO: 2, amino acids #103-#122 (IGLHDPSHGTLPNGSGWKWS)			effect has been seen	sufficient to stimulate pancreatic ductal cells to grow and proliferate	effect has been seen	effect has been seen	effect has been seen
